From patent publication US20230181612A1, “AMINOGLYCOSIDE DERIVATIVES AND USES THEREOF IN TREATING GENETIC DISORDERS” (ELOXX PHARMACEUTICALS LTD., priority 2017, published 2023)
Entries after “also recorded” stand apart in the source; their conditions may differ.

How the values were obtained:
[1] = tested on: G542X nonsense mutation (CFTR, premature UGA G stop codon); experiment: In vitro readthrough, dual luciferase reporter assay, G542X construct; assay type: biochemical; conditions: cystic fibrosis, in words, versus parent compound
Experimental: (§1) The Set1 and Set2 compounds as described in Example 1 hereinabove were tested for their readthrough activity in vitro by using a dual luciferase reporter assay system, as follows.
(§2) DNA fragments derived from PCDH15, CFTR, and IDUA cDNAs, including the tested nonsense mutation or the corresponding WT codon, and four to six upstream and downstream flanking codons, were created by annealing the following pairs of complementary oligonucleotides:
(§3) Fragments were inserted in frame into the polylinker of the p2Luc plasmid between either BamHI and Sad (p.R3X and p.R245X) or Salland Sad (all the rest) restriction sites. For the in vitro readthrough assays, the obtained plasmids, with addition of the tested aminoglycosides were transcribed and translated using the TNT Reticulocyte Lysate Quick Coupled Transcription/Translation System. Luciferase activity was determined after 90 minutes of incubation at 30° C., using the Dual Luciferase Reporter Assay System (Promega™). Stop codon readthrough was calculated as described in Grentzmann et al. RNA 4, 479-486 (1998).
(§4) Reporters carrying R3X nonsense mutation (a premature UGA C stop codon) related to Usher syndrome and G542X (a premature UGA G stop codon) related to Cystic fibrosis were used, and the obtained data is presented in FIGS. 7A-D.

[2] = Toxicity assay in cochlear explants (organ of Corti); assay type: cell-based; conditions: CBA/J, mouse, cochlear explants (organ of Corti), outer hair cells, concentration at 50% loss of hair cells; 72 hours incubation; read-out: Ototoxicity (Loss of outer hair cells), LC50^Coch
Experimental: (§5) The ototoxicity potential of Set1 and Set2 compounds was tested with cochlear explants as described, for example, in E. Shulman et al., J. Biol. Chem. 289(4), 2318-2330 (2014). The ototoxicity was measured as the value of AG concentration that is needed for 50% of hair loss from the outer hair cells of the cochlea, as follows.
(§6) The tested compounds were screened for toxicity to auditory hair cells in explants of the organ of Corti from CBA/J mice of postnatal day 2-3. The dissected tissue was placed on a collagen-coated incubation dish as a flat surface preparation in 1 ml of serum-free Basal Medium Eagle (Sigma Aldrich, St. Louis, Mo.) plus serum-free supplement (Invitrogen, Eugene, Oreg.), 1% bovine serum albumin, 2 mM glutamine, 5 mg glucose /ml and 10 units penicillin/ml. The explants were incubated for 5 hours (37° C., 5% CO2) and an additional 1 ml of culture medium was added to submerse the explants. After 48 hours of continued pre-incubation the culture medium was exchanged for new medium containing a specified concentration of the tested compound. Following another 72 hours of incubation, the explants were washed three times with PBS, fixed overnight in 4% (v/v) paraformaldehyde at 4° C., and then permeabilized for 30 minutes with 0.3% (v/v) Triton X-100 in PBS. The specimens were washed three times with PBS for 10 minutes at room temperature and incubated with rhodamine phalloidin (1:100; Life Technologies, Eugene, OR), either for 1 hour at room temperature or overnight at 4° C.
(§7) Following several rinses with PBS, the explants were mounted on microscope slides with Fluoro-Gel (Electron Microscopy Sciences, Hatfield, Pa.) and imaged on a Leica SP5 Confocal TCS Microscope (Leica, Wetzlar, Germany). Hair cells were identified by phalloidin-staining of their stereociliary bundles and circumferential F-actin rings. Their presence or absence was quantified using a 50x oil immersion objective on an epifluorescence Leitz Orthoplan microscope (Leica, Wetzlar, Germany), equipped with a calibrated scale (0.19 mm) superimposed on the field of view. All rows of hair cells were oriented longitudinally within each frame and counted from the apex of the cochlea to its base. Cell counts were entered in a computer program and compared to a normative database (KHRI Cytocochleogram, version 3.0.6, Kresge Hearing Research Institute, University of Michigan, Ann Arbor, Mich., USA) and are reported as percent hair cell loss averaged over the entire length of the explant.

outer hair cells = experiment: as above; assay type: cell-based; conditions: for morphology of hair cell epithelium: F-actin staining; for ototoxicity potential, in words: LC50^Coch in the millimolar range
Experimental: as §5, §6, §7

human fibroblast cells = conditions: cited from earlier work
eukaryotic ribosome = experiment: Eukaryotic in vitro translation inhibition (TNT T7 Quick Coupled Transcription/Translation System, luciferase); assay type: biochemical; conditions: for IC50: eukaryotic in vitro translation, 30 °C, 60 minutes
Experimental: The Set1 and Set2 compounds as described in Example 1 hereinabove were further tested for their ability to inhibit eukaryotic translation, as follows.
Eukaryotic in vitro translation inhibition was quantified using a TNT® T7 Quick Coupled
Transcription/Translation System with a luciferase T7 control DNA plasmid (Promega), according to the manufacturer protocol. Translation reactions (25 μL) containing variable concentrations of the tested aminoglycoside were incubated at 30° C. for 60 minutes, cooled on ice for 5 minutes, diluted with the dilution reagent and transferred into 96-well plates. In both prokaryotic and eukaryotic systems the luminescence was measured immediately after the addition of the Luciferase Assay Reagent ([…]; Promega), and the light emission was recorded with a FLx800 Fluorescence Microplate Reader (Biotek). The half-maximal inhibition concentration (IC50) values were obtained from fitting concentration-response curves to the data of at least two independent experiments by using Grafit 5 software.

[3] = tested on: R3X nonsense mutation (PCDH15, premature UGA C stop codon); experiment: In vitro readthrough, dual luciferase reporter assay, R3X construct; assay type: biochemical
Experimental: as §1, §2, §3, §4

[4] = tested on: CFTR S466X nonsense mutation; experiment: Readthrough activity in cell-free dual luciferase assay, CFTR S466X; assay type: biochemical, rabbit
Source text: (§8) A dual luciferase plasmid carrying the Cystic fibrosis transmembrane conductance regulator (CFTR) mutation, S466X, or wild-type sequence, between Renilla and Firefly luciferase was transcribed and translated in vitro using rabbit reticulocytes (TNT mix) and then tested for functional activity of firefly and renilla luciferases. WT plasmids expressed both firefly and renilla luciferases while mutant plasmids expressed only the renilla luciferase due to the stop codon found in the inserted sequence. The readthrough assays were conducted for the tested compounds and controls by adding the compounds to the in vitro transcription/translation reaction mixture.
Read-through activity induced by NB74-MeS and NB124-MeS was calculated from the dual luciferase assay data using results from both the WT and mutant plasmids and the following equation: […]
(iii) Readthrough efficiency is presented as fold-increase in Firefly luciferase activity between NB74-MeS and NB124-MeS treated and non-treated mutant plasmid.
(iv) % readthrough of WT is calculated as the percentage of FF/Renilla of the mutant plasmid divided by the FF/Renilla of the WT plasmid.

ribosomes = experiment: Translational inhibition (TI) in cell-free dual luciferase assay, Renilla of WT plasmid; assay type: biochemical, rabbit
Source text: as §8
(i) Translational Inhibition (TI; The extent of the translational inhibition of ribosomes by NB74-MeS and NB124-MeS was calculated using the reduction in the Renilla bioluminescence values of WT plasmid by nonlinear regression curve fit on a plot of Relative Light Units (RLU) versus the log NB74-MeS and NB124-MeS molar concentration (Find ECanything analysis, GraphPad PRISM, version 7).

Structure (SMILES): C[C@H](N)[C@H]1O[C@@H](OC2C(O)[C@H](NS(C)(=O)=O)CC(N)[C@H]2O[C@H]2OC([C@@H](C)O)[C@@H](O)C(O)C2N)C(O)C1O (some centres unmarked) [NB124-MeS]
- readthrough activity, G542X mutation [1]: better activity

Structure (SMILES): CC(=O)N[C@@H]1CC(N)[C@@H](O[C@H]2OC([C@@H](C)O)[C@@H](O)C(O)C2N)C(O[C@@H]2O[C@H]([C@H](C)N)C(O)C2O)C1O (stereo partly drawn) [NB124-Ac, 6′-(R)-Methyl-5-O-(5-(R)-amino-5-deoxy-β-D-ribofuranose)-2′,3-amino-1-N-acetamide paromamine]
- CC50 at 72 h [2]: 1600 µM
- morphology of hair cell epithelium (outer hair cells; 150 μM, 72 hours): remained normal and indistinguishable from the control; also recorded: essentially normal morphology
- ototoxicity potential, in words (outer hair cells): incredibly low ototoxicity potential

Structure (SMILES): CNC1C(O)C(OC2C(N)CC(N)C(OC3OC(C(C)O)C(O)C(O)C3N)C2O)OCC1(C)O (centres unmarked) [Compound G-418]
- LD50 (human fibroblast cells): 0.04 mg/mL

Structure (SMILES): CC(=O)N[C@@H]1CC(N)[C@@H](O[C@H]2OC([C@@H](C)O)[C@@H](O)C(O)C2N)C(O[C@@H]2O[C@H](CN)C(O)C2O)C1O (stereo partly drawn) [NB74-Ac, 6′-(R)-Methyl-5-O-(5″-amino-5″-deoxy-β-D-ribofuranose)-2′,3-amino-1-N-acetamide paromamine]
- IC50 (eukaryotic ribosome): 92.3 ± 9.9 µM
- CC50 at 72 h [2]: 2400 µM
- ototoxicity potential, in words (outer hair cells): incredibly low ototoxicity potential
- CC50 (outer hair cells; concentration at 50% loss of hair cells, 72 hours incubation, read-out: Ototoxicity (Loss of outer hair cells), LC50^Coch): 2040 µM
- ototoxicity relative to parent compound (outer hair cells; from LC50^Coch values): decreased in three orders of magnitude

Structure (SMILES): C[C@@H](O)C1O[C@H](O[C@@H]2C(N)C[C@@H](NS(C)(=O)=O)C(O)C2O[C@@H]2O[C@H](CN)C(O)C2O)C(N)C(O)[C@@H]1O (stereo partly drawn) [NB74-MeS, 6′-(R)-Methyl-5-O-(5″-amino-5″-deoxy-11-D-ribofuranose)-2′,3-amino-1-N-methanesulfonamide paromamine]
- folds better readthrough activity in comparison to NB74 [3]: about 1.5 folds
- readthrough activity, G542X mutation [1]: better activity
- IC50 (eukaryotic ribosome): 8.35 µM
- folds more specific to the eukaryotic ribosome than NB74 (eukaryotic ribosome; from IC50 values): 1.7 folds
- Fold Read-through at TI80 ([4]; S466X, relative to MUT control, 0-16 μM range): 9.9 Fold
- % Read-through at TI80 ([4]; S466X, relative to WT): 17%
- suppression of cystic fibrosis S466X nonsense mutation, in words ([4]; cell-free assay, data not shown): dose-response suppression
- TI80 (ribosomes): 16 µM
- IC50 (ribosomes; read-out: TI50 (the source's name)): > 16 µM
- CC50 at 72 h [2]: 61.8 µM

Structure (SMILES): C[C@@H](O)C1O[C@H](O[C@@H]2C(N)C[C@@H](N)C(O)[C@H]2O[C@@H]2O[C@H](CN)[C@H](O)C2O)C(N)[C@@H](O)[C@@H]1O (some centres unmarked) [NB74, reference compound]
- IC50 (eukaryotic ribosome): 14.3 µM
- CC50 at 72 h [2]: 112 µM

Structure (SMILES): C[C@H](N)[C@H]1O[C@@H](O[C@@H]2C(O)[C@H](N)CC(N)[C@H]2O[C@H]2OC([C@@H](C)O)[C@@H](O)[C@H](O)C2N)C(O)[C@H]1O (some centres unmarked) [NB124, reference compound]
- CC50 at 72 h [2]: 11.1 µM
- morphology of hair cell epithelium (outer hair cells; 15 μM, 72 hours): almost complete
- hair cell loss / damage (outer hair cells; 15 μM, 72 hours, basal part of the cochlea): 80-90%

Structure (SMILES): C[C@@H](O)C1O[C@H](O[C@@H]2C(N)C[C@@H](NC(=O)c3ccccc3)C(O)C2O[C@@H]2O[C@H](CN)C(O)C2O)C(N)C(O)[C@@H]1O (stereo partly drawn) [NB74-Bz, 6′-(R)-Methyl-5-O-(5″-amino-5″-deoxy-β-D-ribofuranose)-2′,3-amino-1-N-benzamide paromamine]
- IC50 (eukaryotic ribosome): 755 µM
- folds less specific to the eukaryotic ribosome than NB74 (eukaryotic ribosome; from IC50 values): 54 folds

Structure (SMILES): C[C@@H](O)C1O[C@H](O[C@@H]2C(N)C[C@@H](NS(=O)(=O)c3ccccc3)C(O)C2O[C@@H]2O[C@H](CN)C(O)C2O)C(N)C(O)[C@@H]1O (stereo partly drawn) [NB74-PhS, 6′-(R)-Methyl-5-O-(5″-amino-5″-deoxy-II-D-ribofuranose)-2′,3-amino-1-N-phenylsulfonamide paromamine]
- IC50 (eukaryotic ribosome): 160 ± 3.6 µM
- CC50 at 72 h [2]: 176 µM
